Results published in PubChem BioAssay AID192 (DTP/NCI, 2004).
Inconclusive results and toxic doses are left out. Bridge positions count the residues as written; N and C are the ends. Square brackets hold non-standard residues; d marks the D form. Peptide text beside a SMILES is read from it. I, II: the chains in the order shown. * marks the point of attachment. Quinoxaline2carbonyl = O=C(c1cnc2ccccc2n1)*; NMeV = CN[CH](C(=O)O)C(C)C; NMeC = CN[CH](CS)C(=O)O

System: BDF1 mice, B16 melanoma ip, median survival T/C
Assay: NCI In Vivo Anticancer Drug Screen. Data for tumor model B16 Melanoma (intraperitoneal) in B6D2F1 (BDF1) mice
Conditions: endpoint: median survival time, higher = longer survival
How it was run: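 Survival or tumor size is measured after treatment of tumor-bearing mice and normalised to the vehicle-treated control group.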

[1] = dose: 100.0 mg/kg/injection, schedule: Q01DX009 (ip), vehicle: saline with Tween-80

CCc1nc(N)nc(N)c1-c1ccc(Cl)cc1
T/C (dose: 4.0 mg/kg/injection, schedule: Q01DX009 (ip), vehicle: Klucel (hydroxypropylcellulose) (HPC)): 93 % of control
T/C (dose: 4.0 mg/kg/injection, schedule: Q01DX009 (oral), vehicle: Klucel (hydroxypropylcellulose) (HPC)): 102 % of control
T/C (dose: 4.0 mg/kg/injection, schedule: Q01DX009 (sc), vehicle: Klucel (hydroxypropylcellulose) (HPC)): 90 % of control
T/C (dose: 4.0 mg/kg/injection, schedule: Q06HX004 (ip), vehicle: Klucel (hydroxypropylcellulose) (HPC)): 107 % of control
T/C (dose: 4.0 mg/kg/injection, schedule: Q06HX008 (ip), vehicle: Klucel (hydroxypropylcellulose) (HPC)): 91 % of control
T/C (dose: 8.0 mg/kg/injection, schedule: Q01DX009 (ip), vehicle: Klucel (hydroxypropylcellulose) (HPC)): 95 % of control
T/C (dose: 8.0 mg/kg/injection, schedule: Q01DX009 (oral), vehicle: Klucel (hydroxypropylcellulose) (HPC)): 100 % of control
T/C (dose: 8.0 mg/kg/injection, schedule: Q01DX009 (sc), vehicle: Klucel (hydroxypropylcellulose) (HPC)): 92 % of control
T/C (dose: 8.0 mg/kg/injection, schedule: Q06HX004 (ip), vehicle: Klucel (hydroxypropylcellulose) (HPC)): 90 % of control
T/C (dose: 8.0 mg/kg/injection, schedule: Q06HX008 (ip), vehicle: Klucel (hydroxypropylcellulose) (HPC)): 104 % of control
T/C (dose: 8.0 mg/kg/injection, schedule: Q06HX012 (ip), vehicle: Klucel (hydroxypropylcellulose) (HPC)): 100 % of control
T/C (dose: 16.0 mg/kg/injection, schedule: Q01DX001 (ip), vehicle: Klucel (hydroxypropylcellulose) (HPC)): 96 % of control
T/C (dose: 16.0 mg/kg/injection, schedule: Q01DX001 (oral), vehicle: Klucel (hydroxypropylcellulose) (HPC)): 106 % of control
T/C (dose: 16.0 mg/kg/injection, schedule: Q01DX001 (sc), vehicle: Klucel (hydroxypropylcellulose) (HPC)): 113 % of control
T/C (dose: 16.0 mg/kg/injection, schedule: Q01DX009 (ip), vehicle: Klucel (hydroxypropylcellulose) (HPC)): 113 % of control
T/C (dose: 16.0 mg/kg/injection, schedule: Q01DX009 (oral), vehicle: Klucel (hydroxypropylcellulose) (HPC)): 113 % of control
T/C (dose: 16.0 mg/kg/injection, schedule: Q01DX009 (sc), vehicle: Klucel (hydroxypropylcellulose) (HPC)): 98 % of control
T/C (dose: 16.0 mg/kg/injection, schedule: Q04DX003 (ip), vehicle: Klucel (hydroxypropylcellulose) (HPC)): 86 % of control
T/C (dose: 16.0 mg/kg/injection, schedule: Q06HX004 (ip), vehicle: Klucel (hydroxypropylcellulose) (HPC)): 98 % of control
T/C (dose: 16.0 mg/kg/injection, schedule: Q06HX008 (ip), vehicle: Klucel (hydroxypropylcellulose) (HPC)): 108 % of control
T/C (dose: 16.0 mg/kg/injection, schedule: Q06HX012 (ip), vehicle: Klucel (hydroxypropylcellulose) (HPC)): 87 % of control
T/C (dose: 16.0 mg/kg/injection, schedule: Q08DX002 (ip), vehicle: Klucel (hydroxypropylcellulose) (HPC)): 87 % of control
T/C (dose: 32.0 mg/kg/injection, schedule: Q01DX001 (ip), vehicle: Klucel (hydroxypropylcellulose) (HPC)): 96 % of control
T/C (dose: 32.0 mg/kg/injection, schedule: Q01DX001 (oral), vehicle: Klucel (hydroxypropylcellulose) (HPC)): 104 % of control
T/C (dose: 32.0 mg/kg/injection, schedule: Q01DX001 (sc), vehicle: Klucel (hydroxypropylcellulose) (HPC)): 117 % of control
T/C (dose: 32.0 mg/kg/injection, schedule: Q01DX009 (ip), vehicle: Klucel (hydroxypropylcellulose) (HPC)): 102 % of control
T/C (dose: 32.0 mg/kg/injection, schedule: Q01DX009 (oral), vehicle: Klucel (hydroxypropylcellulose) (HPC)): 120 % of control
T/C (dose: 32.0 mg/kg/injection, schedule: Q01DX009 (sc), vehicle: Klucel (hydroxypropylcellulose) (HPC)): 103 % of control
T/C (dose: 32.0 mg/kg/injection, schedule: Q04DX003 (ip), vehicle: Klucel (hydroxypropylcellulose) (HPC)): 100 % of control
T/C (dose: 32.0 mg/kg/injection, schedule: Q06HX008 (ip), vehicle: Klucel (hydroxypropylcellulose) (HPC)): 100 % of control
T/C (dose: 32.0 mg/kg/injection, schedule: Q08DX002 (ip), vehicle: Klucel (hydroxypropylcellulose) (HPC)): 102 % of control
T/C (dose: 64.0 mg/kg/injection, schedule: Q01DX001 (sc), vehicle: Klucel (hydroxypropylcellulose) (HPC)): 117 % of control
T/C (dose: 64.0 mg/kg/injection, schedule: Q01DX009 (sc), vehicle: Klucel (hydroxypropylcellulose) (HPC)): 101 % of control
T/C (dose: 64.0 mg/kg/injection, schedule: Q04DX003 (ip), vehicle: Klucel (hydroxypropylcellulose) (HPC)): 100 % of control
T/C (dose: 64.0 mg/kg/injection, schedule: Q08DX002 (ip), vehicle: Klucel (hydroxypropylcellulose) (HPC)): 100 % of control
T/C (dose: 128.0 mg/kg/injection, schedule: Q01DX001 (sc), vehicle: Klucel (hydroxypropylcellulose) (HPC)): 106 % of control

Cc1cc(O)c(N=Nc2ccc(C(=O)O)cc2)cc1C
T/C (dose: 12.5 mg/kg/injection, schedule: Q01DX009 (ip), vehicle: suspension in saline): 109 % of control
T/C (dose: 25.0 mg/kg/injection, schedule: Q01DX009 (ip), vehicle: suspension in saline): 106 % of control
T/C (dose: 50.0 mg/kg/injection, schedule: Q01DX009 (ip), vehicle: suspension in saline): 109 % of control
T/C (dose: 100.0 mg/kg/injection, schedule: Q01DX009 (ip), vehicle: suspension in saline): 90 % of control
T/C (dose: 200.0 mg/kg/injection, schedule: Q01DX009 (ip), vehicle: suspension in saline): 87 % of control

O=C(OCCOCCN1CCCCC1)N1c2ccccc2Sc2cccnc21
T/C (dose: 3.12 mg/kg/injection, schedule: Q01DX009 (ip), vehicle: saline): 100 % of control
T/C (dose: 12.5 mg/kg/injection, schedule: Q01DX009 (ip), vehicle: saline): 100 % of control
T/C (dose: 25.0 mg/kg/injection, schedule: Q01DX009 (ip), vehicle: saline): 102 % of control

O=C(O)CC(=O)O.[NH-]C1CCCCC1[NH-].[Pt+2] (stereo not given)
T/C (dose: 10.0 mg/kg/injection, schedule: Q01DX009 (ip), vehicle: dextrose): 150 % of control
T/C (dose: 12.5 mg/kg/injection, schedule: Q01DX009 (ip), vehicle: dextrose): 196 % of control
T/C (dose: 24.0 mg/kg/injection, schedule: Q01DX009 (ip), vehicle: other): 150 % of control
T/C (dose: 25.0 mg/kg/injection, schedule: Q01DX009 (ip), vehicle: dextrose): 163 % of control

CCCCNc1cc(Nc2ccc(Br)cc2)nc(N)n1
T/C (dose: 50.0 mg/kg/injection, schedule: Q01DX009 (ip), vehicle: saline with Tween-80): 95 % of control
T/C [1]: 91 % of control

c1ccc2c(c1)[As]=c1ccccc1=[As]2 (stereo not given)
T/C (dose: 0.75 mg/kg/injection, schedule: Q01DX009 (ip), vehicle: saline with Tween-80): 104 % of control
T/C (dose: 1.5 mg/kg/injection, schedule: Q01DX009 (ip), vehicle: saline with Tween-80): 106 % of control
T/C (dose: 3.0 mg/kg/injection, schedule: Q01DX009 (ip), vehicle: saline with Tween-80): 100 % of control
T/C (dose: 6.0 mg/kg/injection, schedule: Q01DX009 (ip), vehicle: saline with Tween-80): 110 % of control

COc1ccc(N=C=Nc2ccc(OC)cc2)cc1
T/C (dose: 12.5 mg/kg/injection, schedule: Q01DX009 (ip), vehicle: Klucel (hydroxypropylcellulose) (HPC)): 93 % of control
T/C (dose: 25.0 mg/kg/injection, schedule: Q01DX009 (ip), vehicle: Klucel (hydroxypropylcellulose) (HPC)): 91 % of control

Cc1c2cc3c(c1O)C(=O)CC(O3)c1ccc(O)c(c1)-c1cccc(c1O)C(=O)OCC1OC(O2)C(O)C(O)C1O (stereo not given)
T/C (dose: 0.13 mg/kg/injection, schedule: Q01DX009 (ip), vehicle: Klucel (hydroxypropylcellulose) (HPC)): 93 % of control
T/C (dose: 0.25 mg/kg/injection, schedule: Q01DX009 (ip), vehicle: Klucel (hydroxypropylcellulose) (HPC)): 95 % of control
T/C (dose: 0.5 mg/kg/injection, schedule: Q01DX009 (ip), vehicle: Klucel (hydroxypropylcellulose) (HPC)): 89 % of control
T/C (dose: 1.0 mg/kg/injection, schedule: Q01DX009 (ip), vehicle: Klucel (hydroxypropylcellulose) (HPC)): 88 % of control

CC1NC(=O)C(NC(=O)c2cnc3ccccc3n2)COC(=O)C(C(C)C)N(C)C(=O)C2CSSCC(C(=O)N(C)C(C(C)C)C(=O)OCC(NC(=O)c3cnc4ccccc4n3)C(=O)NC(C)C(=O)N2C)N(C)C1=O (stereo not given) (I: Quinoxaline2carbonyl-SA[NMeC][NMeV] / II: Quinoxaline2carbonyl-SA[NMeC][NMeV]; ester I:1-II:C, I:C-II:1; disulfide I:3-II:3; configuration not given here)
T/C (dose: 3.0 micrograms/kg/injection, schedule: Q01DX009 (ip), vehicle: Klucel (hydroxypropylcellulose) (HPC)): 111 % of control
T/C (dose: 6.0 micrograms/kg/injection, schedule: Q01DX009 (ip), vehicle: Klucel (hydroxypropylcellulose) (HPC)): 122 % of control
T/C (dose: 22.5 micrograms/kg/injection, schedule: Q01DX009 (ip), vehicle: Klucel (hydroxypropylcellulose) (HPC)): 169 % of control
T/C (dose: 24.0 micrograms/kg/injection, schedule: Q01DX009 (ip), vehicle: Klucel (hydroxypropylcellulose) (HPC)): 151 % of control
T/C (dose: 45.0 micrograms/kg/injection, schedule: Q01DX009 (ip), vehicle: Klucel (hydroxypropylcellulose) (HPC)): 187 % of control
T/C (dose: 48.0 micrograms/kg/injection, schedule: Q01DX009 (ip), vehicle: Klucel (hydroxypropylcellulose) (HPC)): 161 % of control
T/C (dose: 96.0 micrograms/kg/injection, schedule: Q01DX009 (ip), vehicle: Klucel (hydroxypropylcellulose) (HPC)): 188 % of control

CCN(C(=O)Nc1ccc(Cl)cc1)c1ccccc1C
T/C [1]: 97 % of control
T/C (dose: 200.0 mg/kg/injection, schedule: Q01DX009 (ip), vehicle: saline with Tween-80): 102 % of control
T/C (dose: 400.0 mg/kg/injection, schedule: Q01DX009 (ip), vehicle: saline with Tween-80): 97 % of control
